A word on the IC50: it is the point on the concentration scale where inhibition reaches its midpoint. What is called melting point is the temperature of the solid-liquid transition.

For series [1], the system named is MCF-7 breast cancer cells. Briefly: MTT cell viability, 48-h incubation, complete medium, MCF-7. The note with it: for IC50: Homo sapiens, MCF7, 48-h incubation, complete medium, mean ± SD. Type of series: cell-based, human. On the procedure:
(§1) Unless otherwise specified, all cell culture experiments were performed in a humidified 5% (v/v) CO2 air atmosphere at 37 °C in complete medium, and cell culture growth media were supplemented with 10% (v/v) foetal bovine serum and 2 mM L-glutamine. Human breast adenocarcinoma cell lines were cultured, maintained at densities lower than 1 × 10^6 cells/cm^2 and discarded upon reaching passage number 60. Stromal healthy cells (human colorectal fibroblasts, 18Co) were cultured using complete DMEM medium supplemented also with 1% (v/v) penicillin–streptomycin. Cells were maintained at densities less than 1 × 10^6 cells/cm^2 and discarded upon reaching passage number 12.
(§2) The full library of coumarins was tested in both breast cancer cell lines, i.e. MCF-7 and MDA-MB-231. Fibroblast were used as “healthy” control. Stocks of compounds 3a–3c, 4a–4m and 5 were dissolved in pure DMSO and then diluted in complete media. (Note that DMSO concentration was kept lower than 0.5% (v/v).) Briefly, MCF-7 and MDA-MB-231 cells were seeded in 96-well plates (3799, Corning Inc., NY, USA) at a density of 1 × 10^4 and 6.7 × 10^3 cells/cm^2, respectively, whereas 18Co fibroblasts were seeded at a density of 1 × 10^4 cells/cm^2. Cells were incubated with coumarin derivatives at concentrations 0.1, 1, 10, 50, 100 and 250 μM for 48 h. Untreated cells (negative) and cells incubated with 0.5% (v/v) DMSO in complete media (positive) were used as controls.
(§3) For each treatment, cell viability was measured via MTT assay after 48-h incubation as following described. Cell culture medium was replaced with 150 μL of fresh medium and 30 μL of MTT solution, and cells were incubated for 4 h (37 °C, 5% CO2). After the formazan crystal formation, cell culture medium was removed from each well and replaced with 200 μL of DMSO. The absorbance was measured at 540-nm wavelength using a plate reader (Synergy 2 Biotek plate reader, Gen5 software).
(§4) IC50 values were calculated (nonlinear regression, normalized response–variable slope) with GraphPad Prism (version 7.04). Values were ranked and classified as: high toxicity, moderate toxicity, poor toxicity and no toxicity. Threshold were set as 60, 80 and > 100 μM, respectively. The selection was used in order to test only the most toxic coumarins under cell culture condition more relevant to the tumour microenvironment, i.e. deprived cell culture media (Sect. 3.3).

For series [2], the system named is MDA-MB-231 breast cancer cells. Briefly: MTT cell viability, 48-h incubation, complete medium, MDA-MB-231. The format is cell-based, human. The note with it: for IC50: Homo sapiens, MDA-MB-231, complete medium, mean ± SD. On the procedure: as §1, §2, §3, §4
Series [3] deals with MDA-MB-231 breast cancer cells. The series is described as follows: MTT cell viability under nutrient-deprived conditions, MDA-MB-231. The format is cell-based. To be noted: Homo sapiens, up to 48 h, average ± SD. On the procedure: (§5) Cells were culture using nutrient-deprived cell culture conditions (i.e. cell culture media with no glucose, L-glutamine, HEPES and sodium pyruvate) to mimic conditions similar to the tumour microenvironment. Note that these experiments were performed only using breast cancer cells. MCF-7 and MDA-MB-231 cells were seeded in 96-well plates (Corning Inc., NY, USA) at a density of 1 × 10^4 and 6.7 × 10^3 cells/cm^2, respectively. Cells were incubated with coumarin derivatives at concentrations of 0.1, 1, 10, 50, 100 and 250 μM up to 48 h. Untreated cells (negative) and cells incubated with 0.5% (v/v) DMSO in complete media (positive) were used as controls.
as §3, §4
(§6) On that basis, we exposed the breast cancer cells to nutrient-deprived conditions where culture media were supplemented only with 2.5% v/v FBS, but not additional glucose, L-glutamine, sodium pyruvate. The coumarins tested were auraptene (4k), umbelliprenin (4l) and analogues 4d, 4c and 4g. […] In similar studies, Zhang et al. and Jun et al. reported the high preferential cytotoxicity of umbelliprenin (4l) and its C6 analogue under NDC against pancreatic cancer cells. It should be therefore noted that these derivatives could represent a potential new tool for treating aggressively metastatic hypoxic tumours. The exact mechanism of action, though, should be further investigated.

Series [4] relates to 18Co colon fibroblasts. The series is described as follows: MTT cell viability, 48-h incubation, 18Co fibroblasts (healthy control). Type of series: cell-based, human. The note with it: for IC50: Homo sapiens, Fibroblast, 48-h incubation, healthy control, mean ± SD. On the procedure:
as §1, §2, §3, §4

Series [5] deals with MCF-7 breast cancer cells. Briefly: MTT cell viability under nutrient-deprived conditions, MCF-7. To be noted: Homo sapiens, MCF7, up to 48 h, average ± SD. The format is cell-based. The method, then:
as §5, §3, §4, §6

Turning to `CC(C)=CCOc1ccc2ccc(=O)oc2c1` [4j, 7-Prenyloxy-2H-chromen-2-one], the results for the half-inhibitory concentration (IC50) in series [1] and in series [2] were 143 ± 11 µM and 175 ± 33 µM, respectively.

As for `CC(C)=CCC/C(C)=C/COc1ccc2c(C)cc(=O)oc2c1` [4b, 7-Geranyloxy-4-methyl-2H-chromen-2-one], the 50% inhibitory concentration (IC50) in series [1] amounted to 129 ± 13 µM; in series [2], 137 ± 9 µM.

`CC(C)=CCOc1cc(OCC=C(C)C)c2c(C)cc(=O)oc2c1` [4g, 5,7-Diprenyloxy-4-methyl-2H-chromen-2-one] registered a melting point of 90 °C. The IC50 in series [3] is 11 ± 2 µM. For the same molecule, the IC50 in series [1] was 69 ± 14 µM. In series [1] (MCF-7 cells, 4g versus 4a), the “fold more cytotoxic than monosubstituted analogue 4a” value is “approximately 2.5 times”. In addition, in series [4], the half-inhibitory concentration (IC50) amounted to 216 ± 23 µM. Besides, in series [5], the IC50 stood at 35 ± 9 µM. For the same molecule, the concentration for half-maximal inhibition (IC50) in series [2] came to 144 ± 16 µM.

Molecule `CCCc1cc(=O)oc2cc(O)ccc12` [3a, 7-Hydroxy-4-propyl-2H-chromen-2-one] gave a melting point of 130 °C. In addition, the concentration for half-maximal inhibition (IC50) in series [1] stood at 225 ± 19 µM. In series [2], the IC50 was 206 ± 9 µM.

`CCCc1cc(=O)oc2cc(OC/C=C(\C)CCC=C(C)C)cc(OC/C=C(\C)CCC=C(C)C)c12` [4i, 5,7-Digeranyloxy-4-propyl-2H-chromen-2-one] came in with a melting point of 79 °C. Also, the concentration for half-maximal inhibition (IC50) in series [1] is over 250 µM. The IC50 in series [2] was 133 ± 34 µM.

In turn, `CC(C)=CCC/C(C)=C/CC/C(C)=C/CC/C(C)=C/COc1ccc2ccc(=O)oc2c1` [4m, 7-Geranylgeranyloxy-coumarin] yielded a melting point of 72 to 73 °C. In addition, the concentration for half-maximal inhibition (IC50) in series [1] is over 250 µM. For the same molecule, the IC50 in series [2] came out at 187 ± 66 µM.

In turn, `CCCCCCCCOc1ccc2c(C)cc(=O)oc2c1` [4d, 4-Methyl-7-octyloxy-2H-chromen-2-one] had a melting point of 51 °C. Moreover, the IC50 in series [3] worked out at 63 ± 5 µM. Further, the 50% inhibitory concentration (IC50) in series [1] was found to be 82 ± 19 µM. For the same molecule, the 50% inhibitory concentration (IC50) in series [4] stood at 206 ± 17 µM. For the same molecule, the 50% inhibitory concentration (IC50) in series [5] is 29 ± 3 µM. Further, in series [2], the “cytotoxicity in words, MDA-MB-231” value is listed as “slight toxic effect” and the concentration for half-maximal inhibition (IC50) came out at 113 ± 7 µM.

As to `O=c1ccc2ccc(O)cc2o1` [3c, 7-hydroxy-coumarin], the IC50 in series [1], in series [4] and in series [2] was over 250 µM throughout.

`CC(C)=CCC/C(C)=C/COc1ccc2ccc(=O)oc2c1` [4k, 7-Geranyloxy-2H-chromen-2-one]: the 50% inhibitory concentration (IC50) in series [3] worked out at 12 ± 8 µM; in series [1], 70 ± 5 µM; in series [4], 176 ± 62 µM; in series [5], 14 ± 5 µM; in series [2], 60 ± 4 µM. Also, the “toxicity in words, 18Co fibroblasts” value in series [4] (healthy control cells) is “some toxicity”.

`CC(C)=CCOc1ccc2c(C)cc(=O)oc2c1` [4a, 7-Prenyloxy-4-methyl-2H-chromen-2-one] registered a melting point of 84 °C. Besides, the concentration for half-maximal inhibition (IC50) in series [1] came to 179 ± 35 µM. Further, the IC50 in series [2] came to 169 ± 23 µM.

For the molecule `CC(=O)Oc1cc(OC(C)=O)c2c(C)cc(=O)oc2c1` [compound 5, 5,7-Diacetyloxy-4-methyl-2H-chromen-2-one], the half-maximal inhibitory concentration (IC50) in series [1] and in series [2] was over 250 µM in each case.

`CC(C)=CCCC(C)=CCCC(C)=CCOc1ccc2c(C)cc(=O)oc2c1` [4c, 7-Farnesyloxy-4-methyl-2H-chromen-2-one]: the half-inhibitory concentration (IC50) in series [3] was 51 ± 9 µM; in series [1], 105 ± 3 µM; in series [4], over 250 µM; in series [5], 19 ± 3 µM; in series [2], 110 ± 29 µM.

As for `CC(C)=CCCC(C)=CCCC(C)=CCOc1ccc2ccc(=O)oc2c1` [4l, 7-Farnesyloxy-coumarin], the IC50 is 7 ± 2 µM in series [3]; 98 ± 9 µM in series [1]; over 250 µM in series [4]; 9 ± 1 µM in series [5]; 88 ± 3 µM in series [2].

Regarding `Cc1cc(=O)oc2cc(O)cc(O)c12` [3b, 5,7-Dihydroxy-4-methyl-2H-chromen-2-one], the IC50 in series [1] and in series [2] was over 250 µM each time.

For the molecule `CCCCCCCCOc1ccc2c(CCC)cc(=O)oc2c1` [4f, 7-Octyloxy-4-propyl-2H-chromen-2-one], the melting point came out at 47 °C. For the same molecule, the half-inhibitory concentration (IC50) in series [1] turned out to be 124 ± 39 µM. The IC50 in series [2] was 143 ± 34 µM.

`CCCc1cc(=O)oc2cc(OCC=C(C)C)cc(OCC=C(C)C)c12` [4h, 5,7-Diprenyloxy-4-propyl-2H-chromen-2-one] displayed a melting point of 71 to 72 °C. In series [1], the half-inhibitory concentration (IC50) amounted to 234 ± 76 µM. For the same molecule, the IC50 in series [2] turned out to be 159 ± 61 µM.

Take `CCCc1cc(=O)oc2cc(OCC=C(C)C)ccc12` [4e, 7-Prenyloxy-4-propyl-2H-chromen-2-one]: the melting point was 89 °C. For the same molecule, the half-inhibitory concentration (IC50) in series [1] was over 250 µM. Besides, the half-inhibitory concentration (IC50) in series [2] is over 250 µM.

Regarding `COc1cccc2c1C(=O)c1c(O)c3c(c(O)c1C2=O)C[C@@](O)(C(=O)CO)C[C@@H]3O[C@H]1C[C@H](N)[C@H](O)[C@H](C)O1` [doxorubicin, reference compound], the IC50 in series [1] is 0.97 µM; in series [2], 0.48 µM.

The values above are taken from publication PMC7870773, “Investigation of the cytotoxicity of bioinspired coumarin analogues towards human breast cancer cells” (Molecular Diversity, 2020).
